# Test results as given in patent EP2951180B1, “2,6,7,8 SUBSTITUTED PURINES AS HDM2 INHIBITORS” (Merck Sharp & Dohme Corp., priority 2013, dated 2014).
# Like-named read-outs stand apart in the source and are kept apart here.
# Molecular target: T1, HDM2 (Homo sapiens, UniProt Q00987)
# T1 construct: Thioredoxin (N); made in house; host or cells: E. coli strain BL21(DE3)Rosetta
# Test: HDM2 FRET assay (inhibition of binding of FITC labeled p53-pocket peptide to HDM2)
# Details: read-out: FRET IC50
# Method in brief: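 Compounds were tested in 10-point serial dilution against 0.5 nM recombinant HDM2 binding 3 nM fluorescein-labeled p53-pocket peptide. Detection used 0.25 nM terbium cryptate anti-6xHis antibody in PBS buffer containing 0.01% BSA and 0.01% Tween-20.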
# [1] = 0.5 nM HDM2 (residues 17 to 125), 3nM peptide, two hour incubation at room temperature
# T1 sequence (Q00987 17-125): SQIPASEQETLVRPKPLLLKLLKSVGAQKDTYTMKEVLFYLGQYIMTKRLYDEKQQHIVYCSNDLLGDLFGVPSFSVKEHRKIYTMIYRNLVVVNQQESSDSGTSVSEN
compound,measurement,setting,value
"C[C@@H]1CCCCN1c1nc2nc(-c3nc(=O)o[nH]3)nc(N[C@H](C)C3CCC3)c2n1C[C@H]1CC[C@H](C)CC1 (single isomer, unassigned) [Example 11.58]",IC50,Table 11,0.00537 µM
C[C@@H](Nc1nc(C(=O)O)nc2nc(NC(=O)c3ccccc3)n(Cc3ccc(C(F)(F)F)cc3)c12)C1CCC1 [Example 9.38],IC50,Table 9,0.657 µM
"CNC(=O)c1nc(N[C@H](C)C2CCC2)c2c(n1)nc(-c1cccc(C)c1)n2Cc1ccc(C(F)(F)F)cc1 [Example 12.30, 6-{[(1R)-1-cyclobutylethyl]amino}-N-methyl-8-(3-methylphenyl)-7-[4-(trifluoromethyl)benzyl]-7H-purine-2-carboxamide]",IC50,[1],0.873 µM
"C[C@@H](Nc1nc(C(=O)O)nc2nc(N3CCOCC3)n(Cc3ccc(Cl)cc3)c12)C1CC1 [Example 9.9, 7-(4-chlorobenzyl)-6-{[(1R)-1-cyclopropylethyl]amino}-8-morpholin-4-yl-7H-purine-2-carboxylic acid]",IC50,Table 9,0.574 µM
"C[C@@H]1COCCN1c1nc2nc(-c3noc(=O)[nH]3)nc(-c3cncc(Cl)c3)c2n1C[C@H]1CC[C@H](C)CC1 [Example 16.10, 3-(6-(5-chloropyridin-3-yl)-7-(((trans)-4-methylcyclohexyl)methyl)-8-((R)-3-methylmorpholino)-7H-purin-2-yl)-1,2,4-oxadiazol-5(4H)-one]",IC50,[1],0.0181 µM
"COc1ccc(C)cc1-c1nc2nc(C(=O)O)nc(N[C@H](C)C3CC3(C)C)c2n1Cc1ccc(C(F)(F)F)cc1 (stereo partly drawn) [Example 6.56, 6-{[(1R)-1-(2,2-dimethylcyclopropyl)ethyl]amino}-8-(2-methoxy-5-methylphenyl)-7-[4-(trifluoromethyl)benzyl]-7H-purine-2-carboxylic acid]",IC50,Table 6,1.41 µM
"C[C@@H](Nc1nc(C(=O)O)nc2nc(N3CCCC34CCc3ccccc34)n(Cc3ccc(C(F)(F)F)cc3)c12)C1CCC1 (stereo partly drawn) [Example 9.74, 6-{[(1R)-1-cyclobutylethyl]amino}-8-(2,3-dihydro-1'H-spiro[indene-1,2'-pyrrolidin]-1'-yl)-7-[4-(trifluoromethyl)benzyl]-7H-purine-2-carboxylic acid]",IC50,Table 9,0.0129 µM
"Cc1cccc(-c2nc3nc(C(=O)O)nc(NC4CCCCC4C)c3n2Cc2ccc(C(F)(F)F)cc2)c1 (stereo not shown) [Example 6.8, 6-[(2-methylcyclohexyl)amino]-8-(3-methylphenyl)-7-[4-(trifluoromethyl)benzyl]-7H-purine-2-carboxylic acid]",IC50,Table 6,0.228 µM
"C[C@@H](Nc1nc(-c2noc(=O)[nH]2)nc2nc(C(O)C3CCOCC3)n(C[C@H]3CC[C@H](C)CC3)c12)C1CCC1 (stereo partly drawn) [Example 22.34, 3-(6-{[(1R)-1-cyclobutylethyl]amino}-8-[hydroxy(tetrahydro-2H-pyran-4-yl)methyl]-7-[(trans-4-methylcyclohexyl)methyl] -7H-purin-2-yl)-1,2,4-oxadiazol-5(4H)-one]",IC50,Table 22,0.0246 µM
"C[C@@H](Nc1nc(C(=O)O)nc2nc(N3CCOC[C@@H]3C)n(Cc3ccc(Cl)cc3)c12)C1CC1 [Example 9.28, 7-(4-chlorobenzyl)-6-{[(1R)-1-cyclopropylethyl]amino}-8-[(3S)-3-methylmorpholin-4-yl]-7H-purine-2-carboxylic acid]",IC50,Table 9,0.143 µM
"C[C@@H](Nc1nc(-c2noc(=O)[nH]2)nc2nc(C3=C(c4ccccc4)CCCC3)n(C[C@H]3CC[C@H](C)CC3)c12)C1CCC1 [Example 21.16, 3-[6-{[(1R)-1-cyclobutylethyl]amino}-7-[(trans-4-methylcyclohexyl)methyl]-8-(2-phenylcyclohex-1-en-1-yl)-7H-purin-2-yl]-1,2,4-oxadiazol-5(4H)-one]",IC50,Table 21,0.0122 µM
"CCS(=O)(=O)c1nc(N[C@H](C)C2CCC2)c2c(n1)nc(N1CCOC[C@H]1c1ccccc1)n2C[C@H]1CC[C@H](C)CC1 [Example 14.5, N-[(1R)-1-cyclobutylethyl]-2-(ethylsulfonyl)-7-[(trans-4-methylcyclohexyl)methyl]-8-[(3R)-3-phenylmorpholin-4-yl]-7H-purin-6-amine]",IC50,[1],0.0201 µM
"C[C@@H](Nc1nc(C(=O)O)nc2nc(N(C)C(=O)C3CCCCC3)n(Cc3ccc(C(F)(F)F)cc3)c12)C1CCC1 [Example 10.4, (R)-6-((1-cyclobutylethyl)amino)-8-(N-methylcyclohexanecarboxamido)-7-(4-(trifluoromethyl)benzyl)-7H-purine-2-carboxylic acid]",IC50,Table 10,0.0141 µM
"CC(C)[S+]([O-])c1nc(N[C@H](C)C2CCC2)c2c(n1)nc(N1CCOC[C@H]1c1ccccc1)n2C[C@H]1CC[C@H](C)CC1 (stereo partly drawn) [Example 14.8, N-[(1R)-1-cyclobutylethyl]-7-[(trans-4-methylcyclohexyl)methyl]-2-[(1-methylethyl)sulfinyl]-8-[(3R)-3-phenylmorpholin-4-yl]-7H-purin-6-amine]",IC50,[1],0.0155 µM
"C[C@@H](Nc1nc(C(=O)O)nc2nc(N3CCOC[C@H]3c3ccccc3)n(C[C@H]3CC[C@H](C)CC3)c12)C(F)(F)F [Example 11.51, 7-[(trans-4-methylcyclohexyl)methyl]-8-[(3R)-3-phenylmorpholin-4-yl]-6-{[(1R)-2,2,2-trifluoro-1-methylethyl]amino}-7H-purine-2-carboxylic acid]",IC50,Table 11,0.00226 µM
"C[C@@H](Nc1nc(S(C)(=O)=O)nc2nc(N3CCCCC3c3ccccc3)n(C[C@H]3CC[C@H](C)CC3)c12)C1CCC1 (single isomer, unassigned) [Example 14.10]",IC50,[1],0.109 µM
"Cc1cccc(-c2nc3nc(C(=O)O)nc(NCCc4ccccc4)c3n2Cc2ccc(C(F)(F)F)cc2)c1 [Example 6.25, 8-(3-methylphenyl)-6-[(2-phenylethyl)amino]-7-[4-(trifluoromethyl)benzyl]-7H-purine-2-carboxylic acid]",IC50,Table 6,5.08 µM
"CONC(=O)c1nc(N[C@H](C)C2CCC2)c2c(n1)nc(-c1cc(C(C)C)ccn1)n2Cc1ccc(C(F)(F)F)cc1 [Example 12.32, 6-{[(1R)-1-cyclobutylethyl]amino}-N-methoxy-8-[4-(1-methylethyl)pyridin-2-yl]-7-[4-(trifluoromethyl)benzyl]-7H-purine-2-carboxamide]",IC50,[1],0.0425 µM
"CC(Nc1nc2nc(-c3noc(=O)[nH]3)nc(N[C@H](C)C3CCC3)c2n1Cc1ccc(C(F)(F)F)cc1)c1ccccn1 (stereo partly drawn) [Example 9.75, 3-(6-{[(1R)-1-cyclobutylethyl]amino}-8-[(1-pyridin-2-ylethyl)amino]-7-[4-(trifluoromethyl)benzyl]-7H-purin-2-yl)-1,2,4-oxadiazol-5(4H)-one]",IC50,Table 9,0.00812 µM
"C[C@@H](Nc1nc(-c2noc(=O)[nH]2)nc2nc(S(=O)(=O)c3ccccc3)n(C[C@H]3CC[C@H](C)CC3)c12)C1CCC1 [Example 19.3, 3-[6-{[(1R)-1-cyclobutylethyl]amino}-7-[(trans-4-methylcyclohexyl)methyl]-8-(phenylsulfonyl)-7H-purin-2-yl]-1,2,4-oxadiazol-5(4H)-one]",IC50,Table 19,0.000943 µM
"C[C@@H](Nc1nc(C(=O)O)nc2nc(N3CCCCC3Cc3ccccc3)n(Cc3ccc(C(F)(F)F)cc3)c12)C1CCC1 (stereo partly drawn) [Example 9.3, 8-(2-benzylpiperidin-1-yl)-6-{[(1R)-1-cyclobutylethyl]amino}-7-[4-(trifluoromethyl)benzyl]-7H-purine-2-carboxylic acid]",IC50,Table 9,0.0145 µM
"C[C@H]1CC[C@H](Cn2c(C3(F)CCCCC3)nc3nc(-c4n[nH]c(=O)o4)nc(-c4cncc(Cl)c4)c32)CC1 [Example 23.56, 5-{6-(5-chloropyridin-3-yl)-8-(1-fluorocyclohexyl)-7-[(trans-4-methylcyclohexyl)methyl] -7H-purin-2-yl}-1,3,4-oxadiazol-2(3H)-one]",IC50,Table 23,0.0107 µM
"CCC1CCCN1c1nc2nc(-c3noc(=O)[nH]3)nc(N[C@H](C)C3CCC3)c2n1C[C@H]1CC[C@H](C)CC1 (stereo partly drawn) [Example 11.33, 3-(6-{[(1R)-1-cyclobutylethyl]amino}-8-(2-ethylpyrrolidin-1-yl)-7-[(trans-4-methylcyclohexyl)methyl]-7H-purin-2-yl)-1,2,4-oxadiazol-5(2H)-one]",IC50,Table 11,0.00537 µM
"C[C@@H](Nc1nc(-c2noc(=O)[nH]2)nc2nc(C(O)C3CCCC3)n(C[C@H]3CC[C@H](C)CC3)c12)C1CCC1 (stereo partly drawn) [Example 22.47, 3-(6-{[(1R)-1-cyclobutylethyl]amino}-8-[cyclopentyl(hydroxy)methyl]-7-[(trans-4-methylcyclohexyl)methyl] -7H-purin-2-yl)-1,2,4-oxadiazol-5(4H)-one]",IC50,Table 22,0.00504 µM
"C[C@@H](Nc1nc(-c2noc(=O)[nH]2)nc2nc(N(C)Cc3ccncn3)n(C[C@H]3CC[C@H](C)CC3)c12)C1CCC1 [Example 11.70, 3-(6-{[(1R)-1-cyclobutylethyl]amino}-7-[(trans-4-methylcyclohexyl)methyl]-8-[methyl(pyrimidin-4-ylmethyl)amino]-7H-purin-2-yl)-1,2,4-oxadiazol-5(2H)-one]",IC50,Table 11,0.0228 µM
"COC1(c2nc3nc(-c4n[nH]c(=O)o4)nc(-c4cncc(Cl)c4)c3n2C[C@H]2CC[C@H](C)CC2)CCCCC1 [Example 23.76, 5-{6-(5-chloropyridin-3-yl)-8-(1-methoxycyclohexyl)-7-[(trans-4-methylcyclohexyl)methyl] -7H-purin-2-yl}-1,3,4-oxadiazol-2(3H)-one]",IC50,Table 23,0.0141 µM
"CC(c1ccccc1)c1nc2nc(-c3noc(=O)[nH]3)nc(N[C@H](C)C3CCC3)c2n1C[C@H]1CC[C@H](C)CC1 (single isomer, unassigned) [Example 21.15]",IC50,Table 21,0.00204 µM
"CC(C)CC1CCCCN1c1nc2nc(-c3noc(=O)[nH]3)nc(N[C@H](C)C3CCC3)c2n1C[C@H]1CC[C@H](C)CC1 (stereo partly drawn) [Example 11.3, 3-(6-(((R)-1-cyclobutylethyl)amino)-8-(2-isobutylpiperidin-1-yl)-7-((trans-4-methylcyclohexyl)methyl)-7H-purine-2-yl)-1,2,4-oxadiazol-5(4H)-one]",IC50,Table 11,0.00614 µM
